Results on 8 compounds are retold here after PubChem BioAssay AID1259411 (Chemical Carcinogenesis Research Information System (CCRIS), 2018).

The test system of this series is rodent carcinogenicity bioassays, tumor incidence. Put plainly: CCRIS carcinogenicity studies. Summed up:
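NCI-built, expert-reviewed records of carcinogenicity and related test outcomes (mutagenicity, tumor promotion/inhibition) compiled from published and report sources, historical span 1985-2011, not updated.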

Active and inactive are the calls of the source. No rule for the calls is given here.

On to `CCCC[C@@H](C)[C@@H](OC(=O)C[C@@H](CC(=O)O)C(=O)O)[C@H](C[C@@H](C)C[C@H](O)CCCC[C@@H](O)C[C@H](O)[C@H](C)N)OC(=O)C[C@@H](CC(=O)O)C(=O)O`, for which the carcinogen call reads like this: (Species: FISH, Strain/Sex: SHASTA RAINBOW TROUT/MALE,FEMALE, Route: ORAL, Dose: 0, 3.2, 23, 104 PPM IN DIET FOR 4 WK, RESUMED AFTER 2 WK FOR 30 WK (STUDY DURATION: 60 WK), Dose: 0, 3.2, 23, 104 PPM IN DIET FOR 4 WK, RESUMED AFTER 2 WK FOR 30 WK (STUDY DURATION: 60 WK)) “inactive; negative”; (Species: MOUSE, Strain/Sex: B6C3F1/FEMALE, Route: ORAL, Dose: 0, 5, 15, 50, 80 PPM IN DIET FOR 104 WK (STUDY DURATION: 104 WK), Dose: 0, 5, 15, 50, 80 PPM IN DIET FOR 104 WK (STUDY DURATION: 104 WK), Tumor Site: Type of Lesion: LIVER: HEPATOCELLULAR ADENOMA, HEPATOCELLULAR CARCINOMA) “active; positive”; (Species: MOUSE, Strain/Sex: B6C3F1/MALE, Route: ORAL, Dose: 0, 5, 15, 80, 150 PPM IN DIET FOR 104 WK (STUDY DURATION: 104 WK), Dose: 0, 5, 15, 80, 150 PPM IN DIET FOR 104 WK (STUDY DURATION: 104 WK)) “inactive; negative”; (Species: RAT, Strain/Sex: BDIX/MALE,FEMALE, Route: ORAL, Dose: 0, 1, 10, 25 MG/KG DIET FOR 2 YR (STUDY DURATION: 2 YR), Dose: 0, 1, 10, 25 MG/KG DIET FOR 2 YR (STUDY DURATION: 2 YR)) “inactive; negative”; (Species: RAT, Strain/Sex: BDIX/MALE, Route: ORAL, Dose: 0, 50 MG/KG DIET FOR 26 MO (STUDY DURATION: 26 MO), Tumor Site: Type of Lesion: LIVER: HEPATOCELLULAR CARCINOMA) “active; positive”; (Species: RAT, Strain/Sex: F344/FEMALE, Route: ORAL, Dose: 0, 5, 15, 50, 100 PPM IN DIET FOR 104 WK (STUDY DURATION: 104 WK), Dose: 0, 5, 15, 50, 100 PPM IN DIET FOR 104 WK (STUDY DURATION: 104 WK)) “inactive; negative”. Further, the carcinogen call (Species: RAT, Strain/Sex: F344/MALE, Route: ORAL, Dose: 0, 5, 15, 50, 150 PPM IN DIET FOR 104 WK (STUDY DURATION: 104 WK), Dose: 0, 5, 15, 50, 150 PPM IN DIET FOR 104 WK (STUDY DURATION: 104 WK), Tumor Site: Type of Lesion: KIDNEY: RENAL TUBULE ADENOMA, RENAL TUBULE CARCINOMA) is “active; positive”.

As to `ClC(Cl)(Cl)c1ccccc1`, the carcinogen call (Species: MOUSE, Strain/Sex: ICR/FEMALE, Route: GAVAGE, Dose: 0, 0.0315, 0.125, 0.5, 2 µL IN STERILIZED SESAME OIL 2/WK FOR 25 WK (STUDY DURATION: 18 MO), Dose: 0, 0.0315, 0.125, 0.5, 2 µL IN STERILIZED SESAME OIL 2/WK FOR 25 WK (STUDY DURATION: 18 MO), Tumor Site: Type of Lesion: FORESTOMACH: SQUAMOUS CELL CARCINOMA, LUNG: ADENOCARCINOMA OR ADENOMA, HEMATOPOIETIC SYSTEM: TUMORS, Tumor Site: Type of Lesion: FORESTOMACH: SQUAMOUS CELL CARCINOMA, LUNG: ADENOCARCINOMA OR ADENOMA, HEMATOPOIETIC SYSTEM: TUMORS) is “active; positive”.

For the compound `Cc1c(COC(=O)[C@@H]2[C@H](/C=C(\Cl)C(F)(F)F)C2(C)C)cccc1-c1ccccc1`, the carcinogen call (Species: Mouse, Strain/Sex: Swiss-Webster Derived Tac(SW)fBR/Female (50/sex/group), Route: Oral, Dose: 0, 50, 200, 500, 600 ppm in feed for 20-21 months, Dose: 0, 50, 200, 500, 600 ppm in feed for 20-21 months) is “inactive; negative; purity 88.35% (98% cis- and 2% trans-isomer)”; the carcinogen call (Species: Mouse, Strain/Sex: Swiss-Webster Derived Tac(SW)fBR/Male (50/sex/group), Route: Oral, Dose: 0, 50, 200, 500, 600 ppm in feed for 20-21 months, Dose: 0, 50, 200, 500, 600 ppm in feed for 20-21 months, Tumor Site: Type of Lesion: Urinary bladder: Leiomyosarcoma (Dose related increase, 29% at 600 ppm)) is “active; positive; purity 88.35% (98% cis- and 2% trans-isomer)”; the carcinogen call (Species: Rat, Strain/Sex: Sprague-Dawley/Female (50/sex/group), Route: Oral, Dose: 0, 12, 50, 100, 200 ppm in feed for 2 yr, Dose: 0, 12, 50, 100, 200 ppm in feed for 2 yr) was “inactive; negative; purity 88.35% (98% cis- and 2% trans-isomer)”; the carcinogen call (Species: Rat, Strain/Sex: Sprague-Dawley/Male (60/group), Route: Oral, Dose: 0, 12, 50, 100, 200 ppm in feed for 2 yr, Dose: 0, 12, 50, 100, 200 ppm in feed for 2 yr) was “inactive; negative; purity 88.35% (98% cis- and 2% trans-isomer)”.

With `C[C@]12CC[C@@H]3c4ccc(O)cc4CC[C@H]3[C@@H]1CC[C@H]2O`, the carcinogen call (Species: HAMSTER, Strain/Sex: SYRIAN/MALE, Route: SUBCUTANEOUS IMPLANT, Dose: 0, 20 MG IN PELLETS IMPLANTED EVERY 2.5 MO FOR 9 MO (STUDY DURATION: 9 MO)) is “inactive; negative”.

As for `Cc1nn(C)c(Oc2ccccc2)c1/C=N/OCc1ccc(C(=O)OC(C)(C)C)cc1`, the carcinogen call by setting is: (Species: Mouse, Strain/Sex: ICR (Crj:CD-1)/Female (50/Group), Route: Oral, Dose: 0, 25, 100, 400, 800 ppm (0; 2.4; 10.2; 41.4; 73.1 mg/kg/day) for 18 mo, study duration 18 mo, Dose: 0, 25, 100, 400, 800 ppm (0; 2.4; 10.2; 41.4; 73.1 mg/kg/day) for 18 mo, study duration 18 mo) “inactive; negative”; (Species: Mouse, Strain/Sex: ICR (Crj:CD-1)/Male (50/Group), Route: Oral, Dose: 0, 25, 100, 400, 800 ppm (0; 2.4; 9.5; 38.0; 69.6 mg/kg/day) for 18 mo, study duration 18 mo, Dose: 0, 25, 100, 400, 800 ppm (0; 2.4; 9.5; 38.0; 69.6 mg/kg/day) for 18 mo, study duration 18 mo) “inactive; negative”; (Species: Rat, Strain/Sex: CD/Female (50/Group), Route: Oral, Dose: 0, 10, 25, 75, 150 ppm of 97.2% fenpyroximate (0; 0.49; 1.21; 3.81; 8.01 mg/kg/day) for 104 wk, study duration 104 wk, Dose: 0, 10, 25, 75, 150 ppm of 97.2% fenpyroximate (0; 0.49; 1.21; 3.81; 8.01 mg/kg/day) for 104 wk, study duration 104 wk) “inactive; negative”; (Species: Rat, Strain/Sex: CD/Male (50/Group), Route: Oral, Dose: 0, 10, 25, 75, 150 ppm of 97.2% fenpyroximate (0; 0.40; 0.97; 3.00; 6.20 mg/kg/day) for 104 wk, study duration 104 wk, Dose: 0, 10, 25, 75, 150 ppm of 97.2% fenpyroximate (0; 0.40; 0.97; 3.00; 6.20 mg/kg/day) for 104 wk, study duration 104 wk) “inactive; negative”.

`Oc1ccc(Cl)cc1Cl`: the carcinogen call is, setting by setting: (Species: MOUSE, Strain/Sex: B6C3F1/FEMALE, Route: ORAL, Dose: 0, 5000, 10000 PPM IN FEED FOR 103 WK (STUDY DURATION: 104 WK), Dose: 0, 5000, 10000 PPM IN FEED FOR 103 WK (STUDY DURATION: 104 WK)) “inactive; negative”; (Species: MOUSE, Strain/Sex: B6C3F1/MALE, Route: ORAL, Dose: 0, 5000, 10000 PPM IN FEED FOR 103 WK (STUDY DURATION: 104 WK), Dose: 0, 5000, 10000 PPM IN FEED FOR 103 WK (STUDY DURATION: 104 WK)) “inactive; negative”; (Species: RAT, Strain/Sex: F344/FEMALE, Route: ORAL, Dose: 0, 2500, 5000 PPM IN FEED FOR 103 WK (STUDY DURATION: 104 WK), Dose: 0, 2500, 5000 PPM IN FEED FOR 103 WK (STUDY DURATION: 104 WK)) “inactive; negative”; (Species: RAT, Strain/Sex: F344/MALE, Route: ORAL, Dose: 0, 5000, 10000 PPM IN FEED FOR 103 WK (STUDY DURATION: 104 WK), Dose: 0, 5000, 10000 PPM IN FEED FOR 103 WK (STUDY DURATION: 104 WK)) “inactive; negative”.

Consider `CCCCN(COC(C)=O)N=O`, for which the carcinogen call is “active; positive” (Species: RAT, Strain/Sex: F344/FEMALE, Route: SUBCUTANEOUS, Dose: 6.6 MG/KG 1/WK FOR 10 WK, Tumor Site: Type of Lesion: INJECTION SITE: MALIGNANT FIBROUS HISTIOCYTOMA) and “active; positive” (Species: RAT, Strain/Sex: F344/MALE, Route: SUBCUTANEOUS, Dose: 6.6 MG/KG 1/WK FOR 10 WK, Tumor Site: Type of Lesion: INJECTION SITE: MALIGNANT FIBROUS HISTIOCYTOMA, LUNG: ADENOMA OR ADENOCARCINOMA OR SQUAMOUS CELL CARCINOMA).

For the compound `O=Nc1ccc(NO)cc1`, the carcinogen call (Species: MOUSE, Strain/Sex: B6C3F1/FEMALE, Route: ORAL, Dose: 0, 750, 1500 PPM IN DIET FOR 104 WK (STUDY DURATION: 105 WK), Dose: 0, 750, 1500 PPM IN DIET FOR 104 WK (STUDY DURATION: 105 WK)) is “inactive; negative”; the carcinogen call (Species: MOUSE, Strain/Sex: B6C3F1/MALE, Route: ORAL, Dose: 0, 750, 1500 PPM IN DIET FOR 104 WK (STUDY DURATION: 105 WK), Dose: 0, 750, 1500 PPM IN DIET FOR 104 WK (STUDY DURATION: 105 WK)) was “inactive; negative”; the carcinogen call (Species: RAT, Strain/Sex: F344/FEMALE, Route: ORAL, Dose: 0, 375, 750 PPM IN DIET FOR 104 WK (STUDY DURATION: 105 WK), Dose: 0, 375, 750 PPM IN DIET FOR 104 WK (STUDY DURATION: 105 WK), Tumor Site: Type of Lesion: URINARY BLADDER: TRANSITIONAL CELL CARCINOMA, TRANSITIONAL CELL PAPILLOMA OR SQUAMOUS CELL CARCINOMA) is “active; positive”; the carcinogen call (Species: RAT, Strain/Sex: F344/MALE, Route: ORAL, Dose: 0, 375, 750 PPM IN DIET FOR 104 WK (STUDY DURATION: 105 WK), Dose: 0, 375, 750 PPM IN DIET FOR 104 WK (STUDY DURATION: 105 WK)) was “inactive; negative”.
